Measurements published in ChEMBL document CHEMBL5579792, “Natural products fragment-based design and synthesis of a novel pentacyclic ring system as potential MAPK inhibitor” (Bioorg Med Chem Lett, 2024).
Each block holds one compound with its values, some of them ahead of it. Active and inactive are the calls of the source. The rule behind the calls is not given here.

Key:
[1] = test system: A549; assay: Induction of apoptosis in human A549 cells assessed as early apoptotic cells at 0.22 uM incubated for 48 hrs by Annexin V/PI staining based flow cytometry analysis (reference value: 1.79%); assay type: functional
[2] = test system: A549; assay: Inhibition of cell migration in human A549 cells at 0.11 uM measured after 24 hrs by scratch assay relative to control; assay type: functional
[3] = test system: A549; assay: Downregulation of phosphorylated ERK/ERK protein expression in human A549 cells at 0.11 to 0.34 uM measured after 48 hrs by Western blot analysis; assay type: functional, cell-based; settings: dose 0.11-0.34 µM
[4] = test system: A549; assay: Antiproliferative activity against human A549 cells assessed as inhibition of cell growth measured after 72 hrs by MTT assay; assay type: functional, cell-based; settings: A549, 72 h
[5] = test system: A549; assay: Induction of apoptosis in human A549 cells assessed as early apoptotic cells at 0.11 uM incubated for 48 hrs by Annexin V/PI staining based flow cytometry analysis (reference value: 1.79%); assay type: functional
[6] = test system: A549; assay: Antiproliferative activity against human A549 cells assessed as inhibition of cell growth measured after 24 hrs by MTT assay; assay type: functional, cell-based; settings: A549, 24 h
[7] = test system: A549; assay: Inhibition of cell migration in human A549 cells at 0.34 uM measured after 24 hrs by scratch assay relative to control; assay type: functional
[8] = test system: A549; assay: Induction of cell cycle arrest in human A549 cells assessed as accumulation at G2/M phase at 0.11 uM incubated for 48 hrs PI staining based by flow cytometry analysis (reference value: 1.14%); assay type: functional
[9] = test system: A549; assay: Induction of cell cycle arrest in human A549 cells assessed as accumulation at G0/G1 phase at 0.22 uM incubated for 48 hrs by PI staining based flow cytometry analysis (reference value: 84.47%); assay type: functional
[10] = test system: A549; assay: Upregulation of phosphorylated p38/p38 protein expression in human A549 cells at 0.11 to 0.34 uM measured after 48 hrs by Western blot analysis; assay type: functional, cell-based; settings: dose 0.11-0.34 µM
[11] = test system: A549; assay: Induction of apoptosis in human A549 cells assessed as late apoptotic cells at 0.22 uM incubated for 48 hrs by Annexin V/PI staining based flow cytometry analysis (reference value: 2.96%); assay type: functional
[12] = test system: MDA-MB-231; assay: Antiproliferative activity against human MDA-MB-231 cells assessed as inhibition of cell growth by MTT assay; assay type: functional, cell-based
[13] = test system: A549; assay: Induction of cell cycle arrest in human A549 cells assessed as accumulation at G0/G1 phase at 0.11 uM incubated for 48 hrs by PI staining based flow cytometry analysis (reference value: 84.47%); assay type: functional
[14] = test system: A549; assay: Induction of apoptosis in human A549 cells assessed as reduction in Bcl-2 protein expression at 0 to 0.34 uM measured after 48 hrs by Western blot analysis; assay type: functional, cell-based; settings: dose 0-0.34 µM
[15] = test system: A549; assay: Induction of apoptosis in human A549 cells assessed as early apoptotic cells at 0.34 uM incubated for 48 hrs by Annexin V/PI staining based flow cytometry analysis (reference value: 1.79%); assay type: functional
[16] = test system: A549; assay: Induction of apoptosis in human A549 cells assessed as dead cells at 0.11 uM incubated for 48 hrs by Annexin V/PI staining based flow cytometry analysis (reference value: 4.58%); assay type: functional
[17] = test system: A549; assay: Antiproliferative activity against human A549 cells assessed as inhibition of cell growth measured after 48 hrs by MTT assay; assay type: functional, cell-based; settings: A549, 48 h
[18] = test system: A549; assay: Induction of apoptosis in human A549 cells assessed as increase in caspase-3 protein expression at 0 to 0.34 uM measured after 48 hrs by Western blot analysis; assay type: functional, cell-based; settings: dose 0-0.34 µM
[19] = test system: A549; assay: Induction of cell cycle arrest in human A549 cells assessed as accumulation at S phase at 0.11 uM incubated for 48 hrs by PI staining based flow cytometry analysis (reference value: 12.105%); assay type: functional
[20] = test system: A549; assay: Induction of apoptosis in human A549 cells assessed as dead cells at 0.22 uM incubated for 48 hrs by Annexin V/PI staining based flow cytometry analysis (reference value: 4.58%); assay type: functional
[21] = test system: A549; assay: Induction of apoptosis in human A549 cells assessed as live cells at 0.34 uM incubated for 48 hrs by Annexin V/PI staining based flow cytometry analysis (reference value: 90.7%); assay type: functional
[22] = test system: A549; assay: Induction of cell cycle arrest in human A549 cells assessed as accumulation at G2/M phase at 0.22 uM incubated for 48 hrs by PI staining based flow cytometry analysis (reference value: 1.14%); assay type: functional
[23] = test system: A549; assay: Inhibition of cell migration in human A549 cells at 0.22 uM measured after 48 hrs by scratch assay relative to control; assay type: functional
[24] = test system: A549; assay: Downregulation of phosphorylated JNK/JNK protein expression in human A549 cells at 0.11 to 0.34 uM measured after 48 hrs by Western blot analysis; assay type: functional, cell-based; settings: dose 0.11-0.34 µM
[25] = test system: A549; assay: Induction of cell cycle arrest in human A549 cells assessed as accumulation at S phase at 0.34 uM incubated for 48 hrs by PI staining based flow cytometry analysis (reference value: 12.105%); assay type: functional
[26] = test system: A549; assay: Induction of apoptosis in human A549 cells assessed as increase in BAX protein expression at 0 to 0.34 uM measured after 48 hrs by Western blot analysis; assay type: functional, cell-based; settings: dose 0-0.34 µM
[27] = test system: A549; assay: Inhibition of cell migration in human A549 cells at 0.34 uM measured after 48 hrs by scratch assay relative to control; assay type: functional
[28] = test system: A549; assay: Induction of cell cycle arrest in human A549 cells assessed as accumulation at S phase at 0.22 uM incubated for 48 hrs by PI staining based flow cytometry analysis (reference value: 12.105%); assay type: functional
[29] = test system: A549; assay: Induction of cell cycle arrest in human A549 cells assessed as accumulation at G2/M phase at 0.34 uM incubated for 48 hrs by PI staining based flow cytometry analysis (reference value: 1.14%); assay type: functional
[30] = test system: A549; assay: Induction of apoptosis in human A549 cells assessed as dead cells at 0.34 uM incubated for 48 hrs by Annexin V/PI staining based flow cytometry analysis (reference value: 4.58%); assay type: functional
[31] = test system: A549; assay: Induction of apoptosis in human A549 cells assessed as live cells at 0.11 uM incubated for 48 hrs by Annexin V/PI staining based flow cytometry analysis (reference value: 90.7%); assay type: functional
[32] = test system: A549; assay: Induction of apoptosis in human A549 cells assessed as live cells at 0.22 uM incubated for 48 hrs by Annexin V/PI staining based flow cytometry analysis (reference value: 90.7%); assay type: functional
[33] = test system: A549; assay: Induction of apoptosis in human A549 cells assessed as late apoptotic cells at 0.34 uM incubated for 48 hrs by Annexin V/PI staining based flow cytometry analysis (reference value: 2.96%); assay type: functional
[34] = test system: A549; assay: Inhibition of cell migration in human A549 cells at 0.22 uM measured after 24 hrs by scratch assay relative to control; assay type: functional
[35] = test system: A549; assay: Antiproliferative activity against human A549 cells assessed as inhibition of cell growth by MTT assay; assay type: functional, cell-based
[36] = test system: A549; assay: Induction of apoptosis in human A549 cells assessed as late apoptotic cells at 0.11 uM incubated for 48 hrs by Annexin V/PI staining based flow cytometry analysis (reference value: 2.96%); assay type: functional
[37] = test system: A549; assay: Inhibition of cell migration in human A549 cells at 0.11 uM measured after 48 hrs by scratch assay relative to control; assay type: functional
[38] = test system: A549; assay: Induction of cell cycle arrest in human A549 cells assessed as accumulation at G0/G1 phase at 0.34 uM incubated for 48 hrs by PI staining based flow cytometry analysis (reference value: 84.47%); assay type: functional
[39] = test system: HCT-116; assay: Antiproliferative activity against human HCT-116 cells assessed as inhibition of cell growth by MTT assay; assay type: functional, cell-based

Structure (SMILES): O=C1c2ccccc2-n2c1nc1nc3ccccc3cc1c2=O
Activity [1]: 8.47% | inhibition at 0.11 µM [2]: 22% | Activity [3]: Active | IC50 [4]: 0.25 µM | Activity [5]: 7.83% | IC50 [6]: 0.43 µM | inhibition at 0.34 µM [7]: 38% | Activity [8]: 5.59% | Activity [9]: 62.47% | Activity [10]: Active | Activity [11]: 18% | IC50 [12]: 3.54 µM | Activity [13]: 72.8% | Activity [14]: Active | Activity [15]: 7.39% | Activity [16]: 7.17% | IC50 [17]: 0.34 µM | Activity [18]: Active | Activity [19]: 22.63% | Activity [20]: 6.65% | Activity [21]: 63.4% | Activity [22]: 8.87% | inhibition at 0.22 µM [23]: 56% | Activity [24]: Active | Activity [25]: 29.02% | Activity [26]: Active | inhibition at 0.34 µM [27]: 60% | Activity [28]: 25.65% | Activity [29]: 9.58% | Activity [30]: 9.32% | Activity [31]: 67.5% | Activity [32]: 66.9% | Activity [33]: 19.9% | inhibition at 0.22 µM [34]: 31% | IC50 [35]: 0.34 µM | Activity [36]: 17.4% | inhibition at 0.11 µM [37]: 50% | Activity [38]: 60.39% | IC50 [39]: 25.2 µM

IC50 [12]: 1.95 µM | IC50 [35]: 35.1 µM | IC50 [39]: 43.2 µM
Structure (SMILES): Cc1ccc2c(c1Cl)C(=O)c1nc3nc4ccccc4cc3c(=O)n1-2

IC50 [12]: > 100 µM | IC50 [35]: > 100 µM | IC50 [39]: > 100 µM
Structure (SMILES): O=c1c2cc3ccccc3nc2nc2n1-c1ccccc1/C2=N\O

IC50 [12]: > 100 µM | IC50 [35]: > 100 µM | IC50 [39]: > 100 µM
Structure (SMILES): N/N=C1\c2ccccc2-n2c1nc1nc3ccccc3cc1c2=O

IC50 [12]: 10.1 µM | IC50 [35]: 0.43 µM | IC50 [39]: 0.4 µM
Structure (SMILES): O=C1c2cc(F)c(Cl)cc2-n2c1nc1nc3ccccc3cc1c2=O

IC50 [12]: 10.1 µM | IC50 [35]: 6.45 µM | IC50 [39]: 15 µM
Structure (SMILES): O=C1c2cc(F)ccc2-n2c1nc1nc3ccccc3cc1c2=O

IC50 [12]: 17.6 µM | IC50 [35]: 10.3 µM | IC50 [39]: 13.5 µM
Structure (SMILES): O=C1c2ccccc2-n2c1nc1cc3ccccc3cc1c2=O [BENZO[K]TRYPTANTHRIN]

Structure (SMILES): CC[C@@]1(O)C(=O)OCc2c1cc1n(c2=O)Cc2cc3ccccc3nc2-1 [CAMPTOTHECIN]
IC50 [35]: 0.39 µM

IC50 [12]: 10.3 µM | IC50 [35]: 0.53 µM | IC50 [39]: 0.33 µM
Structure (SMILES): O=C1c2c(ccc(F)c2Cl)-n2c1nc1nc3ccccc3cc1c2=O
